Key:
anaesthetized cat = experiment: Effect on blood pressure and adrenaline vasopressure response in anaesthetized cat, i.v. (Table 2); format: in vivo; conditions: for inhibition at 2 µmol/kg / inhibition at 10 µmol/kg: Felis catus, iv
Protocol: (§1) (a) Cats (2.6-4.0 kg) of either sex anaesthetized with pentobarbitone sodium (40 mg/kg i.v.) and showing basal mean arterial blood plessure below 150 mm (Hg) were categorised as normotensive and ahove 150 mm Hg as hypertensive. Arterial blood pressure (EP) was recorded from one of the carotid artery through a stathum P23 DC pressure transducer and 7P1 low level DC preamplifier on a Grass Model P7 Polygraph, Signals from 7P1 preamplifier were used to trigger 7P4 Tachograph preamplifier for recording the heart rate (HR). Right femoral vein and Trachea were cannulated for intravenous injections and artificial ventilation respectively. Control responses to intravenous injection of noradrenaline (2-4 ug); acetyl choline (1-2 ug); histamine (1-2 ug) and isoprenaline (1-2 ug) were taken before and after the administration of test doses of each compounds.

[1] = test system: Langendorff perfused rat heart; experiment: Compound at reperfusion after brief (16 min.) ischemic insult (Table 3); conditions: 0.001 ug/ml at reperfusion
[2] = test system: Naturally occurring hypertensive cat; experiment: Effect on blood pressure, heart rate and adrenaline vasopressor response, anaesthetized naturally occurring hypertensive cat; format: in vivo
Protocol: (§2) 2. Effect on blood pressure, heart rate and adrenaline vasopressor response of anaesthetized (pentobarbitone sodium 40 & 60 mg/kg i.p. in cat and rat respectively) normotensive & hypertensive rat & cat model preparations.
as §1

Normotensive cat = experiment: Effect on blood pressure, heart rate and adrenaline vasopressor response, anaesthetized normotensive cat; format: in vivo
Protocol: as §2, §1

[3] = test system: Hypertensive rat model preparation; experiment: Effect on blood pressure, heart rate and adrenaline vasopressor response, hypertensive rat model preparation; format: in vivo
Protocol: as §2

Spinal transected cat = experiment: Site of action: spinal transected cat; format: in vivo; conditions: dose 2-10 umol/kg i.d.
Site of action: ICV = format: in vivo; conditions: dose 0.34-1.36
Isolated aortic strip = experiment: Isolated aortic strip, endothelin induced contraction
From the text: (i) Isolated aortic strip:

[4] = test system: Isolated Guinea pig ileum; experiment: Isolated Guinea pig ileum preparation, antihistaminic activity; conditions: 0.5-5.0 ug/ml
[5] = test system: histamine induced bronchoconstriction; experiment: Konzett and Rossler preparation, histamine induced bronchoconstriction; conditions: in vivo
From the text: (iv) Konzett and Rossler preparation:

Rat aortic ring = Rat aortic ring preparation, NE induced contraction
From the text: (v) Rat aortic ring preparation:

cat [6] = experiment: In vivo drug antagonism studies at 2 uMol dose i.v. in cat; conditions: 2 uMol i.v.
From the text: (B) In viva Drug antagonism studies at 2 uMol dose i.v. in cat: […]

cat [7] = experiment: Comparative antihypertensive effect with clinically used antihypertensive drugs at 2 uMol/kg i.v. in cat; format: in vivo
From the text: (4) Comparative antihypertensive effect with clinically used antihypertensive drugs at 2 uMol/kg i.v. dose in cat

[8] = Cardioprotective effect against myocardial stunning; conditions: in vivo
[9] = test system: Langendorff perfused rat heart; experiment: Langendorff perfused rat heart, prolonged global ischemia, compound given at reperfusion (Table 1)
Protocol: Further, in Langendorff perfused rat heart preparation subjected to even upto […]. global ischemia, the compound at 0.001 ug/ml conc. given at the time of reperfusion revived normal rhythmic contraction started within […]. (Table 1) and incidence of reperfusion induced arrhythmia were abolished.

[10] = 0.001 ug/ml at reperfusion, 90 min. ischemic insult
[11] = 10^-6 M, ischemic insult 45 min

O=C1CCCN1CCCN1CCN(c2ccccn2)CC1 [2-Pyridyl, n=1]
Dur. (anaesthetized cat; 2.0 umol/kg i.v.): 16 min | Dur. (anaesthetized cat; 10.0 umol/kg i.v.): 43 min | inhibition at 2 µmol/kg (anaesthetized cat; 2.0 umol/kg i.v.): 40% | inhibition at 10 µmol/kg (anaesthetized cat; 10.0 umol/kg i.v.): -20 to 0% | Onset [1]: 2.0 min | Percentage recovery 15 min. [1]: 47.60% | Percentage recovery 30 min. [1]: 71.40%

COc1ccccc1N1CCN(CCCN2CCCC2=O)CC1 [C6 H4-2-OCH3, n=1]
Dur. (anaesthetized cat; 2.0 umol/kg i.v.): 19 min | Dur. (anaesthetized cat; 10.0 umol/kg i.v.): 67 min | inhibition at 2 µmol/kg (anaesthetized cat; 2.0 umol/kg i.v.): 47% | inhibition at 10 µmol/kg (anaesthetized cat; 10.0 umol/kg i.v.): > 100% | Onset [1]: 2.0 min | Percentage recovery 15 min. [1]: 45.40% | Percentage recovery 30 min. [1]: 59.09%

O=C1CCCN1CCCN1CCN(c2cccc(Cl)c2)CC1 [Example 2, 1-[4-(3-chlorophenyl)piperazin-1-yl]-3-[2-oxopyrrolidin-1-yl]propane]
Percentage recovery 15 min. ([1]; listed as C6 H4 -3-C1, n=1): 50.00% | Percentage recovery 30 min. ([1]; listed as C6 H4 -3-C1, n=1): 88.80% | Onset ([1]; listed as C6 H4 -3-Cl, n=1): 3.0 min | Percentage recovery 15 min. ([1]; listed as C6 H4 -3-Cl, n=1): 31.50% | Percentage recovery 30 min. ([1]; listed as C6 H4 -3-Cl, n=1): 39.40%

O=C1CCCN1CCCN1CCN(c2ccc(Cl)cc2)CC1 [Example 3, 1-[4-(4-chlorophenyl)piperazin-1-yl]-3-[2-oxopyrrolidin-1-yl]propane]
Percentage recovery 15 min. [1]: 87.50% | Percentage recovery 30 min. [1]: 120.80%

O=C1CCCN1CCCN1CCN(c2cccc(F)c2)CC1 [Example 4, 1-[4-(3-fluorophenyl)piperazin-1-yl)-3-[2-oxopyrrolidin-1-yl]propane]
Percentage recovery 15 min. [1]: 120.00% | Percentage recovery 30 min. [1]: 180.00%

O=C1CCCN1CCCN1CCN(c2ccc(F)cc2)CC1 [Example 5, 1-[4-(4-fluorophenyl)piperazin-1-yl]-3-[2-oxopyrrolidin-1-yl]propane]
B.P. Fall (%) ([2]; 10 uMol/kg i.d.): 16% | B.P. fall Dur. ([2]; 10 uMol/kg i.d.): 110 min | B.P. Fall (%) ([2]; 20 uMol/kg i.d.): 22% | B.P. fall Dur. ([2]; 20 uMol/kg i.d.): > 156.75 min | B.P. Fall (%) (Normotensive cat; 10 uMol/kg i.d.): 22% | B.P. fall Dur. (Normotensive cat; 10 uMol/kg i.d.): 85 min | B.P. Fall (%) (Normotensive cat; 20 uMol/kg i.d.): 21% | B.P. fall Dur. (Normotensive cat; 20 uMol/kg i.d.): > 102.5 min | B.P. Fall (%) ([3]; 5 uMol/kg i.d.): 27% | B.P. fall Dur. ([3]; 5 uMol/kg i.d.): 51 min | Heart rate Pre treatment ([3]; 5 uMol/kg i.d.): 350 beats/min | Heart rate post treatment ([3]; 5 uMol/kg i.d.): 370 beats/min | B.P. Fall (%) ([3]; 10 uMol/kg i.d.): 22% | B.P. fall Dur. ([3]; 10 uMol/kg i.d.): 76 min | B.P. Fall (%) ([3]; 20 uMol/kg i.d.): 29% | B.P. fall Dur. ([3]; 20 uMol/kg i.d.): 100 min | B.P. Fall (%) (Spinal transected cat): 14-18% | B.P. fall Dur. (Spinal transected cat): 15 to 30 min | B.P. Fall (%) (Site of action: ICV): 8-10% | B.P. fall Dur. (Site of action: ICV): 10 to 15 min | Endothelin induced contraction (Isolated aortic strip): inhibited significantly | Response to endothelin after washing the preparation (Isolated aortic strip; after washing): relaxation rather than contraction | antihistaminic activity [4]: significant antihistaminic activity | antihistaminic activity against histamine induced bronchoconstriction [5]: some antihistaminic activity | NE induced contraction (Rat aortic ring): inhibited | reduction of the fall in pressure (cat [6]; pretreatment with KATP blocker glibenclamide): only partially reduced | alteration of antihypertensive effect (cat [6]; pretreatment with atropine sulphate, mepyramine maleate, propranolol or yohimbine): failed to alter | Dur. (cat [7]): 25 min | cardioprotective effect against myocardial stunning [8]: cardioprotective effect against myocardial stunning at a much smaller dose than antihypertensive dose | Percentage recovery 15 min. [9, 10]: 81.25% | Percentage recovery 30 min. [9, 10]: 87.15% | incidence of reperfusion induced arrhythmia ([9]; 0.001 ug/ml at reperfusion, up to 90 min global ischemia): abolished | Percentage recovery 15 min. [1]: 81.25% | Percentage recovery 30 min. [1]: 78.12%

CCc1ccc(N2CCN(CCCN3CCCC3=O)CC2)cc1 [Example 6, 1-[4-(4-ethylphenyl)piperazin-1-yl]-3-[2-oxopyrrolidin-1-yl]propane]
Percentage recovery 15 min. [1]: 103.03% | Percentage recovery 30 min. [1]: 60.60%

CCc1ccccc1N1CCN(CCCN2CCCC2=O)CC1 [Example 7, 1-[4-(2-ethylphenyl)piperazin-1-Yl]-3-[2-oxopyrrolidin-1-yl]propane]
Percentage recovery 15 min. [1]: 106.06% | Percentage recovery 30 min. [1]: 136.36%

O=C1CCCCN1CCCN1CCN(c2cccc(C(F)(F)F)c2)CC1 [Example 14, 1-[4-(3-trifluoromethylphenyl)piperazin-1-yl]-3-[2-oxopiperidin-1-yl]propane]
Dur. (min.) (anaesthetized cat; 10.0 umol/kg i.v.): Tr

COC(=O)C1=C(C)NC(C)=C(C(=O)OC)C1c1ccccc1[N+](=O)[O-] [Nifedipine, reference compound]
Percentage recovery 15 min. [9, 11]: 0.66% | Percentage recovery 30 min. [9, 11]: 0.0%
